“Also recorded” adds a separate entry of the source. Residues, ends and D or L forms follow the SMILES beside them.
How the values were obtained:
[1] = tested on: anti-EBNA antibodies; assay: ELISA with polypeptide as solid phase antigen, detecting anti-polypeptide antibodies in sera; assay type: binding, human; conditions: for Average titer of Progressive Systemic Schlerosis (PSS) patients to polypeptide compared with normals: high and low serum dilutions; for Reaction of VCA- sera with polypeptide: panel of 19 VCA- sera; for Reactivity of sera of EBV non-immune donors to polypeptide: panel of 27 EBV non-immune (VCA-) donors; for Number of 91 anti-EBNA positive (ACIF) sera positive against polypeptide: sera at 1:20 dilution; for Antibodies binding to polypeptide before and after EBV-induced infectious mononucleosis: sera of two subjects; for Reaction of sera of clinically normal VCA+ individuals with polypeptide: two serum dilutions
Description: A solution containing a substrate for the enzyme label such as hydrogen peroxide for peroxidase and a color-forming dye precursor such as o-phenylenediamine, or p-nitrophenyl phosphate for alkaline phosphatase is thereafter admixed with the solid phase.
(§1) Anti-peptide antibody binding and inhibition studies were carried out by an enzyme-linked immunosorbent assay (ELISA) as described below.
(§2) Briefly, microtiter wells (Costar, #3590, Cambridge, Mass.) were coated with individual polypeptides as antigens by adding 100 microliters (ul) of BBS [10 millimoler (mM) sodium borate (pH 8.3), 150 mM NaCl] containing polypeptide at a concentration of 10 micrograms per milliliter (ug/ml). Contact between the wells and antigen-containing solution was maintained for a predetermined time, typically 15 minutes, and at 20 degrees C., to form an antigen-coated solid phase. The solid and liquid phases were separated and the wells were washed three times with BBS.
Non-specific binding sites were blocked by admixing 200 microliters of 1% bovine serum albumin (BSA) in each well to form another solid-liquid phase admixture, and maintaining that solid-liquid phase admixture for 30 minutes, at 20 degrees C. The phases were separated and excess, unbound BSA was removed by washinq three times with BBS.
[…] Contact between the diluted sera and the antigen-coated solid phase was maintained for a predetermined time such as 1 hour, and at 20 degrees C., for an immunoreactant to form. The solid and liquid phases were separated, and the solid phase; i.e., antigen-coated, immunoreactant-containing wells, was then washed three times with BBS.
The antibodies in human sera that immunoreacted with an adsored polypeptide were detected using an indicating means comprising alkaline phosphatase-conjugated goat anti-human Ig antibody (Tago, Burlington, CA). The antibodies in rabbit sera that immunoreacted with an adsorbed polypeptide were detected using an indicating means comprising alkaline phosphatase-conjugated goat anti-rabbit Ig antibody (Kirkegard & Perry Laboratories, Inc., Gaithersburg, Md.). In either instance, 100 microliters of the indicating antibody diluted 1:300 in BBS were added per well to form a further solid-liquid phase composition. This solidliquid phase composition was maintained for a predetermined time, one hour, for the formation of a reaction product between the human antibodies bound to the solid phase and the indicating means, and at 20 degrees C.

[2] = tested on: EBNA; assay: Immunoblotting of whole cell extracts with rabbit anti-polypeptide antisera; assay type: binding, Epstein-Barr virus; conditions: for Inhibition of recognition of EBNA by anti-P62 serum: anti-P62 serum 1:10 incubated with 40 ug/ml polypeptide for one hour
Description: Exemplary receptor molecules containing antibody combining sites of this invention raised in rabbits to the polypeptides shown in Table 1 were studied using the immunoblotting procedures of Towbin, et. al., Proc. Natl. Acad. Sci., U.S.A., 76:4350-4354 (1979) and Billings, et. al., Proc. Natl. Acad. Sci., U.S.A., 80:7104-7108 (1983). Further details are provided in the Materials and Methods section (II).
Extracts of EBNA producing and non-producing (control) cells were prepared to determine if receptor molecules of this invention were useful for diagnosing EBNA expression. Cells from cultures described hereinabove were washed in phosphate-buffered saline (PBS; 150 mM NaCl, 10 mM sodium phosphate, pH 7.4) containing 0.2 mM phenylmethylsulfonyl fluoride, swollen for 5 minutes in reticulocyte standard buffer (RSB; 10 mM NaCl, 10 mM Tris-HCl, pH 7.4, 1.5 mM MgCl2, 0.2 mM phenylmethylsulfonyl fluoride), and lysed by sonication in 3-5 volumes of RBS adjusted to 0.2-0.35 molar (M) NaCl. After 30 minutes on ice, the sonicate was centrifuged at 10,000×g for 15 minutes to remove cellular debris.
Cell extracts obtained above were assayed for EBNA using human sera known to contain anti-EBNA antibodies or exemplary receptor molecules of this invention. Tne extracts were either concentrated by precipitation with 2 volumes of ethanol at -20 degrees C. for about 18 hours, and were then dissolved in sample buffer [SB; 10% glycerol, 2% 2-mercaptoethanol, 1% sodium dodecyl sulfate (SDS), 0.002% bromphenol blue, 40 mM Tris-HCl (pH 7.4)] or diluted 1:6 in sample buffer for SDS-polyacrylamide gel electrophoresis (SDS-PAGE). 7.5% Polyacrylamide gels were cast and run according to the procedure of Laemmli, Nature, […] (1970), applying 50 to 200 micorgrams of total protein per lane. […]
Anti-peptide antibodies bound to EBNA protein were detected by reacting the blots with an indicating means. […]

[3] = Circular dichroism spectroscopy of polypeptides in phosphate buffered saline; assay type: physicochemical; conditions: 1 mg/ml
Description: The conformational properties of the polypeptides were investigated to elucidate any secondary structure that might be necessary for polypeptide immunoreaction with human anti-EBNA antibodies. The polypeptides were dissolved at a concentration of 1 mg/ml in phosphate-buffered saline (PBS). Spectra were taken using 1 ml samples in a Cary 61 spectropolarimeter (Cary Instruments, Applied Physics Corp., Monrovia, Calif.) interfaced and automated with a Digital Equipment Corporation 11/02 computer (Digital Equipment Corporation, Maynard, Mass.).

[4] = tested on: rabbit anti-polypeptide antibody to polypeptide P62; assay: Competition ELISA: rabbit anti-polypeptide P62 antibody binding to solid phase P62; conditions: antibody first incubated with competing polypeptide
Description: as §1, §2
Non-specific binding sites were blocked by admixing 200 microliters of 1% bovine serum albumin (BSA) in each well to form another solid-liquid phase admixture, and maintaining that solid-liquid phase admixture for 30 minutes, at 20 degrees C. […]
The antibodies in human sera that immunoreacted with an adsored polypeptide were detected using an indicating means comprising alkaline phosphatase-conjugated goat anti-human Ig antibody (Tago, Burlington, CA). The antibodies in rabbit sera that immunoreacted with an adsorbed polypeptide were detected using an indicating means comprising alkaline phosphatase-conjugated goat anti-rabbit Ig antibody (Kirkegard & Perry Laboratories, Inc., Gaithersburg, Md.). […]

[5] = serum MV post-mononucleosis, dilution 1:20
[6] = serum MV pre-mononucleosis, dilution 1:20
[7] = serum SB post-mononucleosis, dilution 1:20
[8] = serum SB pre-mononucleosis, dilution 1:20
[9] = serum VCA + Normal 1, dilution 1:20
[10] = serum VCA + Normal 2, dilution 1:20

Row | SMILES | OD405 × 10^3 obtained with patient antibodies to polypeptide, average ± one standard deviation ([1]; VCA- Normals (n = 27), dilution 1:20) | Average titer of Progressive Systemic Schlerosis (PSS) patients to polypeptide compared with normals [1] | Reaction of VCA- sera with polypeptide [1] | Reactivity of sera of EBV non-immune donors to polypeptide [1] | Number of 91 anti-EBNA positive (ACIF) sera positive against polypeptide [1] | Antibodies binding to polypeptide before and after EBV-induced infectious mononucleosis [1] | OD405 × 10^3 obtained with patient antibodies to polypeptide [1, 5] | OD405 × 10^3 obtained with patient antibodies to polypeptide [1, 6] | OD405 × 10^3 obtained with patient antibodies to polypeptide [1, 7] | OD405 × 10^3 obtained with patient antibodies to polypeptide [1, 8] | OD405 × 10^3 obtained with patient antibodies to polypeptide [1, 9] | OD405 × 10^3 obtained with patient antibodies to polypeptide [1, 10] | Reaction of sera of clinically normal VCA+ individuals with polypeptide [1] | Inhibition of recognition of EBNA by anti-P60 serum ([2]; anti-P60 serum 1:50 incubated with 40 ug/ml polypeptide for one hour) | Inhibition of recognition of EBNA by anti-P62 serum [2] | Conformation indicated by circular dichroism spectrum [3] | Time course of anti-P62 antibodies after onset of infectious mononucleosis versus ACIF anti-EBNA titer ([1]; one-half of 8 students (e.g. patient 15)) | Time of detection of antibodies against polypeptide after onset of infectious mononucleosis ([1]; other half of 8 students (e.g. patients 14 and 2)) | Number of 91 EBNA positive sera immunoreacting with polypeptide ([1]; sera at 1:320 dilution) | Inhibition of binding of anti-polypeptide P62 to solid phase polypeptide P62 [4]
1 | C[C@H](NC(=O)CNC(=O)CNC(=O)[C@H](C)NC(=O)CNC(=O)[C@H](C)NC(=O)CNC(=O)CNC(=O)CN)C(=O)NCC(=O)N[C@@H](C)C(=O)NCC(=O)NCC(=O)NCC(=O)NCC(=O)N[C@@H](CCCNC(=N)N)C(=O)O [Polypeptide P60, H--Gly--Gly--Gly--Ala--Gly--Ala--Gly--Gly--Ala--Gly--Ala--Gly--Gly--Gly--Gly--Arg--OH] (H-GGGAGAGGAGAGGGGR-OH) | 45 ± 18 OD405 × 10^3 | relatively higher average titer | None of the VCA- sera were found to react positively | None of tne sera displayed significant reactivity | 91 | absent before infection, but appeared afterward | 162 OD405 × 10^3 | 72 OD405 × 10^3 | 115 OD405 × 10^3 | 51 OD405 × 10^3 | 154 OD405 × 10^3 | 145 OD405 × 10^3 | all of the VCA+ indiviuals were positive | innibited | inhibited | very similar spectra |  |  |  | 
2 | C[C@H](N)C(=O)NCC(=O)N[C@@H](C)C(=O)NCC(=O)NCC(=O)NCC(=O)N[C@@H](C)C(=O)NCC(=O)NCC(=O)N[C@@H](C)C(=O)NCC(=O)N[C@@H](C)C(=O)NCC(=O)NCC(=O)NCC(=O)N[C@@H](C)C(=O)NCC(=O)NCC(=O)N[C@@H](C)C(=O)NCC(=O)O [Polypeptide P62, H-Ala--Gly--Ala--Gly--Gly--Gly--Ala--Gly--Gly--Ala--Gly--Ala--Gly--Gly--Gly--Ala--Gly--Gly--Ala--Gly--OH] (H-AGAGGGAGGAGAGGGAGGAG-OH) |  | relatively higher average titer | None of the VCA- sera were found to react positively | None of tne sera displayed significant reactivity | 91 | absent before infection, but appeared afterward | 631 OD405 × 10^3 | 77 OD405 × 10^3 | 514 OD405 × 10^3 | 13 OD405 × 10^3 | 958 OD405 × 10^3 | 819 OD405 × 10^3 | all of the VCA+ indiviuals were positive |  | inhibited | relatively stable secondary structure | rose in parallel with the corresponding anti-EBNA titer | detected in the first month after the onset of symptoms | 83 | 
3 | CSCC[C@H](NC(=O)[C@@H]1CCCN1C(=O)[C@H](CCCNC(=N)N)NC(=O)[C@H](CCCCN)NC(=O)[C@H](CCC(=O)O)NC(=O)CNC(=O)[C@H](CCCNC(=N)N)NC(=O)CNC(=O)[C@H](CCCNC(=N)N)NC(=O)CNC(=O)[C@H](CCCNC(=N)N)NC(=O)CNC(=O)[C@H](CCCNC(=N)N)NC(=O)[C@H](C)NC(=O)[C@@H](N)CCCNC(=N)N)C(=O)O [Polypeptide P89, H--Arg--Ala--Arg--Gly--Arg--Gly--Arg--Gly--Arg--Gly--Glu--Lys--Arg--Pro--Met--OH] (H-RARGRGRGRGEKRPM-OH) |  |  |  |  |  | no antibodies were produced | 25 OD405 × 10^3 | 29 OD405 × 10^3 | 23 OD405 × 10^3 | 9 OD405 × 10^3 | 23 OD405 × 10^3 | 16 OD405 × 10^3 |  |  |  |  |  |  |  | did not significantly crossreact; also recorded: did not inhibit
